# Assay results published in ChEMBL document CHEMBL3120092, “Discovery of GS-9669, a thumb site II non-nucleoside inhibitor of NS5B for the treatment of genotype 1 chronic hepatitis C infection” (J Med Chem, 2014).
# Legend:
# [1] = Cytotoxicity against human MT4 cells after 5 days by Cell Titre Glo assay; type: cell-based
# [2] = Intrinsic cytotoxicity against human MT4 cells after 5 days by Cell Titre Glo assay; type: cell-based
# Hepatitis C virus [3] = assay: Antiviral activity against Hepatitis C virus H77 genotype 1a infected in human HuH7 cells assessed as intrinsic antiviral potency after 72 hrs by luciferase reporter gene assay; type: functional, organism-based, Hepacivirus hominis; conditions: genotype 1a H77, Huh-7, 72 h
# Hepatitis C virus [4] = assay: Antiviral activity against Hepatitis C virus H77 genotype 1a infected in human HuH7 cells assessed as plasma adjusted antiviral potency after 72 hrs by luciferase reporter gene assay; type: functional, organism-based, Hepacivirus hominis; conditions: genotype 1a H77, Huh-7, Plasma
# [5] = Lipophilicity, log D of the compound by chromatography; type: physicochemical
# [6] = Fraction unbound in cell culture medium at 2 uM at pH 7.4 by equilibrium dialysis method; type: ADME
# Hepatitis C virus [7] = assay: Antiviral activity against Hepatitis C virus H77 genotype 1a infected in human HuH7 cells assessed as observed antiviral potency after 72 hrs by luciferase reporter gene assay; type: functional, organism-based, Hepacivirus hominis; conditions: genotype 1a H77, Huh-7, 72 h
# [8] = Mean residence time in Sprague-Dawley rat at 0.5 mg/kg, iv; type: ADME, organism-based; design: dose 0.5 mg/kg, route intravenous; conditions: in vivo
# [9] = Cytotoxicity against human HuH7 cells after 3 days by Cell Titre Glo assay; type: cell-based, Huh-7
# Hepatitis C virus [10] = assay: Antiviral activity against Hepatitis C virus Con1 genotype 1b infected in human HuH7 cells after 72 hrs by luciferase reporter gene assay; type: functional, organism-based, Hepacivirus hominis; conditions: isolate Con1, Huh-7, 72 h
Structure (SMILES),CC50 at 120 h [1] [nM],CC50 at 120 h [2] [nM],EC50 (Hepatitis C virus [3]) [nM],EC50 (Hepatitis C virus [4]) [nM],chromatographic logD [5],fraction unbound at 2 µM [6],EC50 (Hepatitis C virus [7]) [nM],MRT [8] [h],CC50 at 72 h [9] [nM],EC50 (Hepatitis C virus [10]) [nM]
CC(C)(C)C#Cc1cc(N(C(=O)[C@H]2CC[C@H](C)CC2)[C@H]2CC[C@H](OC3CCOCC3)CC2)c(C(=O)O)s1,> 20000,1990,2.4,1830,2.4,–,–,–,–,–
CC(C)(C)C#Cc1cc(N(C(=O)[C@H]2CC[C@H](C)CC2)[C@H]2C[C@@H](Oc3cccnc3)C2)c(C(=O)O)s1,> 20000,–,6.4,–,–,0.04,156,–,–,–
CC(C)(C)C#Cc1cc(N(C(=O)[C@H]2CC[C@H](C)CC2)C2CCN(S(C)(=O)=O)CC2)c(C(=O)O)s1,> 20000,–,8.7,–,–,0.17,51,–,–,–
CC(C)(C)C#Cc1cc(N(C(=O)[C@H]2CC[C@H](C)CC2)[C@H]2CC[C@H](Oc3ccc(=O)[nH]n3)CC2)c(C(=O)O)s1,> 20000,1480,3.5,285,2,–,39,1.6,–,–
CC(C)(C)C#Cc1cc(N(C(=O)[C@H]2CC[C@H](C)CC2)[C@H]2CC[C@H](OC3COC3)CC2)c(C(=O)O)s1,> 20000,8350,4.3,102,2.6,–,–,–,–,–
C[C@@H](CCOc1cccnc1)N(c1cc(C#CC(C)(C)C)sc1C(=O)O)C(=O)[C@H]1CC[C@H](C)CC1,> 20000,–,2.4,–,–,0.02,102,–,–,–
CC(C)(C#Cc1cc(N(C(=O)[C@H]2CC[C@H](C)CC2)[C@H]2CC[C@H](Oc3ccc(O)nn3)CC2)c(C(=O)O)s1)C(F)(F)F,> 20000,–,4.9,516,–,–,51,–,–,–
CC(C)N(c1cc(-c2ccccc2)sc1C(=O)O)C(=O)[C@H]1CC[C@H](C)CC1,> 20000,–,170,–,–,0.08,2100,–,≥ 20000,593
CC1CC=C(C(=O)N(c2cc(C#CC(C)(C)C)sc2C(=O)O)C(C)C)CC1 (stereo not drawn),> 20000,–,65,–,–,0.08,773,–,–,–
CC(C)N(c1cc(C#CC(C)(C)C)sc1C(=O)O)C(=O)[C@H]1CC[C@H](Cl)CC1,> 20000,–,44,–,–,0.14,315,–,–,–
C[C@@H](CCO)N(c1cc(C#CC(C)(C)C)sc1C(=O)O)C(=O)[C@H]1CC[C@H](C)CC1,> 20000,–,3.3,–,–,0.22,15,–,≥ 20000,7
CC(C)N(C(=O)[C@H]1CC[C@@H]2C[C@@H]2CC1)c1cc(C#CC(C)(C)C)sc1C(=O)O,> 20000,–,483,–,–,0.08,6190,–,–,–
CC(C)(C)C#Cc1cc(N(C(=O)[C@H]2CC[C@H](C)CC2)[C@H]2CC[C@@](O)(CO[C@H]3CCOC3)CC2)c(C(=O)O)s1,> 20000,18100,4.3,191,–,–,–,0.2,–,–
CC(C)(C)C#Cc1cc(N(CCO)C(=O)[C@H]2CC[C@H](C)CC2)c(C(=O)O)s1,> 20000,–,–,–,–,–,304,–,≥ 20000,78
CC(C)N(c1cc(C#CC(C)(C)C)sc1C(=O)O)C(=O)[C@H]1CC[C@H](CF)CC1,> 20000,–,31,–,–,0.18,169,–,–,–
CC(C)N(C(=O)C1CCC(F)(F)CC1)c1cc(C#CC(C)(C)C)sc1C(=O)O,> 20000,–,12800,–,–,0.4,32100,–,–,–

Structure (SMILES),CC50 at 120 h [1] [nM],CC50 at 120 h [2] [nM],EC50 (Hepatitis C virus [3]) [nM],EC50 (Hepatitis C virus [4]) [nM],chromatographic logD [5],fraction unbound at 2 µM [6],EC50 (Hepatitis C virus [7]) [nM],MRT [8] [h],CC50 at 72 h [9] [nM],EC50 (Hepatitis C virus [10]) [nM]
C[C@H]1CC[C@H](C(=O)N(c2cc(C#CC3(C(F)(F)F)CC3)sc2C(=O)O)[C@H]2CC[C@H](Oc3ccc(O)nn3)CC2)CC1,> 20000,–,6.9,751,–,–,61,–,–,–
C[C@H]1CC[C@H](C(=O)N(c2cc(C#CC3(C(F)(F)F)CCC3)sc2C(=O)O)[C@H]2CC[C@H](Oc3ccc(O)nn3)CC2)CC1,> 20000,–,2.7,607,–,–,120,–,–,–
CC(C)(C)C#Cc1cc(N(C(=O)[C@H]2CC[C@H](C)CC2)[C@H]2CC[C@H](Oc3ccncn3)CC2)c(C(=O)O)s1,> 20000,599,2.8,1390,2.3,–,75,7.1,–,–
CC(C)N(C(=O)C1CCCCC1)c1cc(C#CC(C)(C)C)sc1C(=O)O,> 20000,–,500,–,–,0.18,2800,–,–,–
CC(C)N(C(=O)C1CCCCCC1)c1cc(C#CC(C)(C)C)sc1C(=O)O,> 20000,–,225,–,–,0.11,2020,–,–,–
CCC[C@]1(CC(=O)O)OCCc2c1[nH]c1c(C)ccc(C#N)c21,> 20000,–,–,–,–,–,–,–,–,–
CC(C)(C)C#Cc1cc(N(C(=O)[C@H]2CC[C@H](C)CC2)[C@H]2CC[C@H](OC3CCOC3)CC2)c(C(=O)O)s1 (stereo partly drawn),> 20000,3070,4.3,749,2.3,–,55,3.5,–,–
CON=C1CCC(N(c2cc(C#CC(C)(C)C)sc2C(=O)O)C(=O)[C@H]2CC[C@H](C)CC2)CC1 (stereo partly drawn),> 20000,–,6.1,–,–,0.07,88,–,–,–
CC(C)(C)C#Cc1cc(N(C(=O)[C@H]2CC[C@H](C)CC2)[C@H]2CC[C@@H](Oc3ccc(O)nn3)CC2)c(C(=O)O)s1,> 20000,2170,2.6,277,1.8,–,24,0.5,–,–
CC(C)N(C(=O)[C@@H]1CC[C@@H]2C[C@@H]2CC1)c1cc(C#CC(C)(C)C)sc1C(=O)O,> 20000,–,88,–,–,0.05,1620,–,–,–
CC1=CC[C@@H](C(=O)N(c2cc(C#CC(C)(C)C)sc2C(=O)O)C(C)C)CC1,> 20000,–,3.7,–,–,0.08,45,–,–,–
CC(C)(C)C#Cc1cc(N(C(=O)[C@H]2CC[C@H](C)CC2)[C@H]2CC[C@@H](Oc3cccnc3)CC2)c(C(=O)O)s1,> 20000,–,1.2,–,–,–,45,0.2,–,–
CC(C)(C#Cc1cc(N(C(=O)[C@H]2CC[C@H](C)CC2)[C@H]2CC[C@H](OC3CCOC3)CC2)c(C(=O)O)s1)CCO (stereo partly drawn),> 20000,31300,6.1,167,1.6,–,–,0.4,–,–
CC(C)(C)C#Cc1cc(N(C(=O)[C@H]2CC[C@H](C)CC2)C2CCN(C(=O)c3cccnc3)CC2)c(C(=O)O)s1,> 20000,–,43,–,–,0.23,183,–,–,–
C[C@@H]1CC[C@@H](C(=O)N(c2cc(C#CC(C)(C)C)sc2C(=O)O)[C@H]2CC[C@H](OC3CCOC3)CC2)[C@@H](O)C1 (stereo partly drawn),> 20000,11600,2,138,2.2,–,–,1.9,–,–
CC(C)N(C(=O)[C@H]1[C@@H]2CCCC[C@@H]21)c1cc(C#CC(C)(C)C)sc1C(=O)O,> 20000,–,206,–,–,0.04,4680,–,–,–
